Laboratory results reported in patent US9113629B2, “4-amino-6-(4-substituted-phenyl)-picolinates and 6-amino-2-(4-substituted-phenyl)-pyrimidine-4-carboxylates and their use as herbicides” (DOW AGROSCIENCES LLC, priority 2013, dated 2015).
Like-named read-outs stand apart in the source and are kept apart here.

What was measured:
Format in all cases: in vivo
[1] = system: ECHCG: barnyardgrass (Echinochloa crus-galli); test: Post-emergent Test I herbicidal activity; settings: post-emergence, 336 h, 4 kg ai/ha, read-out: Visual Growth Reduction (%) 14 Days After Application, ECHCG
Experimental: (§1) Post-emergent Test I Seeds test species were obtained from commercial suppliers and planted into a 13 cm diameter-round pot containing soil-less media mix (metro-mix 360®, Sun Gro Horticulture). Postemergence treatments were planted 8-12 days prior to application and cultured in a greenhouse equipped with supplemental light sources to provide a 16 h photoperiod at 24-29° C. All pots were surface irrigated.
(§2) A weighted amount, determined by the highest rate to be tested, of each compound was dissolved in 1.3 mL acetone-DMSO (97:3, v/v) and diluted with 4.1 mL water-isopropanol-crop oil concentrate (78:20:2, v/v/v) containing 0.02% Triton X-155 to obtain concentrated stock solutions. Additional application rates were obtained by serial dilution of the high rate solution into a solution containing appropriate volume of 97:3 v/v mixture of acetone and DMSO and appropriate volume of an aqueous mixture of water, isopropyl alcohol, crop oil concentrate (78:20:2, v/v/v) containing 0.02% Triton X-155.
(§3) Formulated compounds were applied using a DeVilbiss® compressed air sprayer at 2-4 psi. Following treatment, pots were returned to the greenhouse for the duration of the experiment. All pots were sub-irrigated as need to provide optimum growing conditions. All pots were fertilized one time per week by subirrigating with Peters Peat-Lite Special® fertilizer (20-10-20).
(§4) […] All evaluations were made visually on a scale of 0 to 100 where 0 represents no activity and 100 represents complete plant death. Visual assessments of plant injury were made based on growth reduction, discoloration, leaf deformity and necrosis.

[2] = system: SETFA: giant foxtail (Setaria faberi); test: Post-emergent Test I herbicidal activity; settings: post-emergence, 336 h, 4 kg ai/ha, read-out: Visual Growth Reduction (%) 14 Days After Application, SETFA
Experimental: as §1, §2, §3, §4

[3] = system: HELAN: sunflower (Helianthus annuus); test: Post-emergent Test I herbicidal activity; settings: post-emergence, 336 h, 4 kg ai/ha, read-out: Visual Growth Reduction (%) 14 Days After Application, HELAN
Experimental: as §1, §2, §3, §4

[4] = system: AVEFA: wild oats (Avena fatua); test: Post-emergent Test I herbicidal activity; settings: post-emergence, 336 h, 4 kg ai/ha, read-out: Visual Growth Reduction (%) 14 Days After Application, AVEFA
Experimental: as §1, §2, §3, §4

[5] = system: IPOHE: ivyleaf morningglory (Ipomoea hederecea); test: Post-emergent Test I herbicidal activity; settings: post-emergence, 336 h, 4 kg ai/ha, read-out: Visual Growth Reduction (%) 14 Days After Application, IPOHE
Experimental: as §1, §2, §3, §4

[6] = system: test plant species in Direct Seeded Rice; test: Postemergence herbicidal activity in direct seeded rice (Table 13); settings: for GR50 BRAPP / GR80 BRAPP / GR50 CYPSS / GR80 CYPSS / GR50 ECHSS / GR80 ECHSS / GR50 LEFSS / GR80 LEFSS / GR20 ORYSS / GR50 SCPJU / GR80 SCPJU / GR50 SEBEX / GR80 SEBEX: probit analysis; for GR20 ORYSS: ORYSS: Oryza sativa (crop); for pest or weed control at 35 g/ha / pest or weed control at 70 g/ha: post-emergence, 504 h; for pest or weed control at 35 g/ha: 35 g ai/ha; for pest or weed control at 70 g/ha: 70 g ai/ha
Source text: Seeds or nutlets of the desired test plant species were planted in a soil matrix prepared by mixing a loam soil (43 percent silt, 19 percent clay, and 38 percent sand, with a pH of about 8.1 and an organic matter content of about 1.5 percent) and river sand in an 80 to 20 ratio. The soil matrix was contained in plastic pots with a surface area of 139.7 cm^2. When required to ensure good germination and healthy plants, a fungicide treatment and/or other chemical or physical treatment was applied. The plants were grown for 10-17 d in a greenhouse with an approximate 14-h photoperiod which was maintained at about 29° C. during the day and 26° C. during the night. Nutrients and water were added on a regular basis and supplemental lighting was provided with overhead metal halide 1000-Watt lamps as necessary. The plants were employed for testing when they reached the second or third true leaf stage. A weighed amount, determined by the highest rate to be tested, of each test compound was placed in 25 mL glass vials and dissolved in a volume of 97:3 v/v acetone-DMSO to obtain 12× stock solutions. […] The concentrated stock solutions were added to the spray solutions so that the final acetone and DMSO concentrations were 16.2% and 0.5%, respectively. Spray solutions were diluted to the appropriate final concentrations with the addition of 10 mL of an aqueous mixture of 1.5% (v/v) Agri-dex crop oil concentrate. […] Compound requirements are based upon a 12 mL application volume at a rate of 187 L/ha. Formulated compounds were applied to the plant material with an overhead Mandel track sprayer equipped with […] nozzles calibrated to deliver 187 L/ha over an application area of 0.503 square meters (m^2) at a spray height of 18 inches (43 cm) above average plant canopy height. Control plants were sprayed in the same manner with the solvent blank. The treated plants and control plants were placed in a greenhouse as described above and watered by sub-irrigation to prevent wash-off of the test compounds. After 20-22 days, the condition of the test plants, compared with that of the untreated plants, was determined visually and scored on a scale of 0 to 100 percent where 0 corresponds to no injury and 100 corresponds to complete kill. By applying the well-accepted probit analysis as described by J. Berkson in Journal of the American Statistical Society, 48, 565 (1953) and by D. Finney in “Probit Analysis” Cambridge University Press (1952), the above data can be used to calculate GR20, GR50, GR80 and GR90 values, which are defined as growth reduction factors that correspond to the effective dose of herbicide required to kill or control 20 percent, 50 percent, 80 percent or 90 percent, respectively, of a target plant.

[7] = BRAPP: broadleaf signalgrass, Brachiaria platyphylla
[8] = CYPSS: sedge (Cyperus difformis, esculentus, iria)
[9] = ECHSS: barnyardgrass (Echinochloa crus-galli), junglerice (Echinochloa colonum)
[10] = LEFSS: sprangletop (Leptochloa chinensis, Leptochloa dubia)
[11] = SCPJU: Japanese bulrush, Scirpus juncoides
[12] = SEBEX: hemp sesbania, Sesbania exaltata
[13] = BRAPP: broadleaf signalgrass, Brachiaria platyphylla, read-out: Visual Growth Reduction (%) 21 Days After Application BRAPP
[14] = CYPSS: sedge (Cyperus difformis, esculentus, iria), read-out: Visual Growth Reduction (%) 21 Days After Application CYPSS
[15] = ECHSS: barnyardgrass (Echinochloa crus-galli), junglerice (Echinochloa colonum), read-out: Visual Growth Reduction (%) 21 Days After Application ECHSS
[16] = LEFSS: sprangletop (Leptochloa chinensis, Leptochloa dubia), read-out: Visual Growth Reduction (%) 21 Days After Application LEFSS
[17] = ORYSS: Oryza sativa, read-out: Visual Growth Reduction (%) 21 Days After Application ORYSS
[18] = SCPJU: Japanese bulrush, Scirpus juncoides, read-out: Visual Growth Reduction (%) 21 Days After Application SCPJU
[19] = SEBEX: hemp sesbania, Sesbania exaltata, read-out: Visual Growth Reduction (%) 21 Days After Application SEBEX

Row | SMILES | GR50 BRAPP [6, 7] [g ai/ha] | GR80 BRAPP [6, 7] [g ai/ha] | GR50 CYPSS [6, 8] [g ai/ha] | GR80 CYPSS [6, 8] [g ai/ha] | GR50 ECHSS [6, 9] [g ai/ha] | GR80 ECHSS [6, 9] [g ai/ha] | GR50 LEFSS [6, 10] [g ai/ha] | GR80 LEFSS [6, 10] [g ai/ha] | GR20 ORYSS [6] [g ai/ha] | GR50 SCPJU [6, 11] [g ai/ha] | GR80 SCPJU [6, 11] [g ai/ha] | GR50 SEBEX [6, 12] [g ai/ha] | GR80 SEBEX [6, 12] [g ai/ha] | pest or weed control at 35 g/ha [6, 13] [%] | pest or weed control at 70 g/ha [6, 13] [%] | pest or weed control at 35 g/ha [6, 14] [%] | pest or weed control at 70 g/ha [6, 14] [%] | pest or weed control at 35 g/ha [6, 15] [%] | pest or weed control at 70 g/ha [6, 15] [%] | pest or weed control at 35 g/ha [6, 16] [%] | other results
1 | Nc1c(F)c(-c2ccc(Br)cc2)nc(C(=O)O)c1Cl [Compound 20] |  |  |  |  |  |  |  |  |  |  |  |  |  |  |  |  |  |  |  |  | pest or weed control at 4000 g/ha [1]: 95 to 100%; pest or weed control at 4000 g/ha [2]: 95 to 100%; pest or weed control at 4000 g/ha [3]: 95 to 100%; pest or weed control at 4000 g/ha [4]: 75 to 84%; pest or weed control at 4000 g/ha [5]: 85 to 94%
2 | Nc1c(Cl)c(C(=O)O)nc(-c2ccc(C(F)(F)F)c(F)c2)c1Cl [Compound 146] | 8 | 29 | 1 | 1 | 17 | 32 | 44 | 87 | 18 | 1 | 1 | 3 | 4 | 60 to 74 | 95 to 100 | 95 to 100 | 95 to 100 | 85 to 94 | 85 to 94 | 0 to 29 | pest or weed control at 70 g/ha [6, 16]: 75 to 84%; pest or weed control at 35 g/ha [6, 17]: 30 to 44%; pest or weed control at 70 g/ha [6, 17]: 60 to 74%; pest or weed control at 35 g/ha [6, 18]: 95 to 100%; pest or weed control at 70 g/ha [6, 18]: 95 to 100%; pest or weed control at 35 g/ha [6, 19]: 95 to 100%; pest or weed control at 70 g/ha [6, 19]: 95 to 100%
3 | COC(=O)c1nc(-c2ccc(I)cc2F)cc(N)c1Cl [Compound 159] | 3 | 8 | 2 | 5 | 2 | 4 | 12 | 19 | 12 | 1 | 1 | 1 | 1 | 95 to 100 | 95 to 100 | 95 to 100 | 95 to 100 | 95 to 100 | 95 to 100 | 95 to 100 | pest or weed control at 70 g/ha [6, 16]: 95 to 100%; pest or weed control at 35 g/ha [6, 17]: 45 to 59%; pest or weed control at 70 g/ha [6, 17]: 60 to 74%; pest or weed control at 35 g/ha [6, 18]: 95 to 100%; pest or weed control at 70 g/ha [6, 18]: 95 to 100%; pest or weed control at 35 g/ha [6, 19]: 95 to 100%; pest or weed control at 70 g/ha [6, 19]: 95 to 100%
4 | Nc1c(Cl)c(C(=O)O)nc(-c2ccc(I)cc2)c1Cl [Compound 173] | 8 | 26 | 2 | 4 | 12 | 33 | 24 | 47 | 16 | 1 | 1 | 1 | 1 | 75 to 84 | 95 to 100 | 95 to 100 | 95 to 100 | 75 to 84 | 95 to 100 | 45 to 59 | pest or weed control at 70 g/ha [6, 16]: 95 to 100%; pest or weed control at 35 g/ha [6, 17]: 45 to 59%; pest or weed control at 70 g/ha [6, 17]: 60 to 74%; pest or weed control at 35 g/ha [6, 18]: 95 to 100%; pest or weed control at 70 g/ha [6, 18]: 95 to 100%; pest or weed control at 35 g/ha [6, 19]: 95 to 100%; pest or weed control at 70 g/ha [6, 19]: 95 to 100%
